Where a name gives a salt, the structure may show the parent alone.
Key:
[1] = biological target: T1, human c-Mpl-introduced Ba/F3 cell (Homo sapiens, UniProt P40238); assay: Test Example 2: human c-Mpl-introduced Ba/F3 cell proliferative activity; format: cell-based; conditions: concentration exhibiting 30% proliferation; 100% = positive control (Example 315 of Patent Document 1) at 1 μM
T1 construct: expressed in transfected cells
T1 sequence (P40238 26-635): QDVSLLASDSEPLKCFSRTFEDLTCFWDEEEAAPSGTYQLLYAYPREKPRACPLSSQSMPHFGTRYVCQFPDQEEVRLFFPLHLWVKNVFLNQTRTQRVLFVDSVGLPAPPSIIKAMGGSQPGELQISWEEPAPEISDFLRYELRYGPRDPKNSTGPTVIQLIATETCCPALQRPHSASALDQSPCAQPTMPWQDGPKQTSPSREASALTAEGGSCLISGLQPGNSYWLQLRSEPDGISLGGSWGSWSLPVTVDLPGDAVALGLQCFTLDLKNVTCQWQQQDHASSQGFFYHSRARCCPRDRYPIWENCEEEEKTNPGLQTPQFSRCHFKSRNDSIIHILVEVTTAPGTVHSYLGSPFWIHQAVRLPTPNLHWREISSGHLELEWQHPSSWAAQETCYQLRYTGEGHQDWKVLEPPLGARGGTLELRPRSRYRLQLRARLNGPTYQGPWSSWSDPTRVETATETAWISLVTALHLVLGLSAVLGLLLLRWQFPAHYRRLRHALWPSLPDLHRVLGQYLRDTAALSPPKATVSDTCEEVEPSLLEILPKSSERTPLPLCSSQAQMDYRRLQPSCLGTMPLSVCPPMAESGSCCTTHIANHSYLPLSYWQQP
Protocol: Test Example 2: Evaluation of Human c-Mpl-Introduced Ba/F3 Cell Proliferative Activity
The human c-Mpl-introduced Ba/F3 cell proliferation action was measured by the following method.
As a positive control, 1-(5-{[4-(4-chlorothiophen-2-yl)-5-{[(2R)-2-methylpyrrolidin-1-yl]methyl}-1,3-thiazol-2-yl]carbamoyl}-3-fluoropyridin-2-yl)piperidine-4-carboxylic acid hydrochloride disclosed as Example 315 in Patent Document 1, represented by the formula (A1) above, was used. Further, it is known that the compound has a good human c-Mpl-introduced Ba/F3 cell proliferative activity as disclosed in Table 1 in Patent Document 1.
a) Construction of Vector Expressing Human c-Mpl Receptor
A human c-Mpl receptor gene (GenBank Accession No.: M90102.1) was transfected into an expression vector pEF-BOS (Nucleic Acids Research, 18: pp 5322 (1990)).
b) Construction of Cell Stably Expressing Human c-Mpl Receptor
A vector expressing a human c-Mpl receptor was introduced into a Ba/F3 cell (RIKEN BRC: RCB0805). For the introduction, an electroporation method was used. pEF-BOS-c-mpl (10 μg), pSV2bsr (1 μg, Kaken Pharmaceutical Co., Ltd.) and 1×10^7 of Ba/F3 cells were put into cuvettes with a gap width of 0.4 cm and electroporated under a condition of 1.5 kV (25 μF) in a Gene Pulser (registered trademark) (BioRad). The cells were incubated in an RPMI-1640 medium supplemented with a 0.5% WEHI conditioned medium (BD Biosciences) and 10% fetal bovine serum for 3 days, and thereafter, and the cells were incubated for 30 days in an RPMI-1640 medium, to which 10 μg/mL blasticidin had been further added, thereby acquiring a drug-resistant clone.
c) Measurement of Cell Proliferative Activity
The cells obtained in b) above were dispensed into an RPMI-1640 medium supplemented with a 0.5% WEHI conditioned medium and 10% fetal bovine serum, and used. The day before the experiment, the test substances (final concentration of 100 nM to 10 μM) which had been dissolved in a medium for assay (an RPMI-1640 medium supplemented with 10% fetal bovine serum) were added to a 384-well plate (Model No. 781185, Greiner bio-one). The cells after the medium had been replaced with the medium for assay were dispensed to a 384-well plate to which the test substance had been added, to 1×10^4 cells/well, and incubated overnight at 37° C. and 5% CO2. On the experiment day, a solution of a Cell counting kit (Dojindo Laboratories) was added to each well of the 384-well plate, and the cells were incubated for about 5 hours at 37° C. and 5% CO2. Thereafter, the absorbance (an absorbance wavelength of 450 nm) of each well was measured using Safire^2 (registered trademark) (TECAN), and used as an index for the number of cells. Further, as a negative control, a well to which the test substances had not been added was prepared.
By taking the absorbance of the well to which the test substance had been not added as 0% and taking the absorbance in a case where the positive control had been added to a final concentration of 1 μM as 100%, a cell proliferation rate (%) was calculated from the absorbance of the well to which the test substance had been added.

[2] = system: pelvic nerve stimulation-induced elevation of intravesical pressure; assay: Test Example 4: effect on pelvic nerve stimulation-induced elevation of intravesical pressure in anesthetized rats; format: in vivo, rat; conditions: 3 mg/kg intravenous; maximum effect within one hour; anesthetized SD female rats; pre-treatment = 100%
Protocol: Test Example 4: Effect on Pelvic Nerve Stimulation-Induced Elevation of Intravesical Pressure in Anesthetized Rats
The effect of the Example compounds of the present invention in the pelvic nerve electrical stimulation-induced elevation of intravesical pressure using rats as an action of nerve stimulation-dependent bladder contraction in vivo was measured by the following method. That is, SD female rats (Japan SLC, Inc.) were used and its lower abdomen was dissected at the midline under pentobarbital anesthesia (50 mg/kg ip). After ligating and cutting the ureter on both sides, a cannula (PE-50) for measuring the intravesical pressure was inserted into the bladder from the external urethral opening and fixed by a clip. After injecting about 200 μL of saline through the cannula that had been inserted into the bladder, the other side was connected to a pressure transducer to measure the intravesical pressure. Under a stereoscopic microscope observation, the pelvic nerve in the vicinity of the bladder was peeled and an electrode for nerve stimulation (unique Medical) was placed. The abdominal cavity was filled with mineral oil (MP BIOMEDICALS). After placing in a post-operative stabilization period, the pelvic nerve was subjected to electrical stimulation (stimulation voltage: 10 V, stimulation frequency: 8 Hz, pulse width: 0.3 msec, and stimulation time: 10 seconds) to elicit the elevation of intravesical pressure, using an electrical stimulator (Nihon Kohden). By repeating the electrical stimulation at an interval of 2 minutes while adjusting the voltage, the voltage was adjusted to elicit about 50% to 70% elevation of intravesical pressure elicited at 10 V. Thereafter, by repeating the electrical stimulation at an interval of 10 minutes, the increase in the intravesical pressure by electrical stimulation was stabilized three times or more, and the test substance (an administration amount of 3 mg/kg) was then administered from the catheter detained in the vein at a volume of 1 mL/kg, thus measuring an effect of the elevation of the intravesical pressure of the test substance for 1 hour. The test substance was dissolved in water supplemented with 10% dimethylsulfoxide and 10% Cremophor.
The response was applied to a personal computer through a PowerLab (registered trademark) and analyzed by LabChart (registered trademark). The AUC of each elevation of the intravesical pressure was calculated, the intravesical pressure elevation rate (% of pre) after the treatment with the test substance was calculated by taking an average value of the values measured three times before the treatment with the test substance as 100%, and the maximum effect during a period within one hour after administration of the compound was considered as the effect of the test substance.
The elevation rates (% of pre) of the intravesical pressure when some Example compounds were administered at 3 mg/kg are shown in Table 4.

SMILES	human c-Mpl-introduced Ba/F3 cell proliferative activity EC30 [1]	Increase rate (% of pre) of intravesical pressure [2]
C[C@@H]1CC[C@@H](C)N1Cc1sc(NC(=O)c2cnc(N3CCN(CCC(=O)O)CC3)cn2)nc1-c1cc(F)cc(C(F)(F)F)c1 [Example 119]	>10 µM	173 % of pre
C[C@@H]1CCCN1Cc1sc(NC(=O)c2cnc(N3CCN(CCC(=O)O)CC3)cn2)nc1-c1cc(C2CC2)cc(C(F)(F)F)c1 [Example 67]	>10 µM	126 % of pre
C[C@@H]1CCCN1Cc1sc(NC(=O)c2cnc(N3CCN(CC(=O)O)CC3)cn2)nc1-c1cc(Cl)cs1 [Example 51]	2.6 µM	223 % of pre
C[C@@H]1CCCN1Cc1sc(NC(=O)c2cnc(N3CCN(CCC(=O)O)CC3)cn2)nc1-c1ccc(F)c(C(F)(F)F)c1 [Example 60]	9.7 µM	130 % of pre
C[C@@H]1CCCN1Cc1sc(NC(=O)c2cnc(N3CCN(CCC(=O)O)CC3)cn2)nc1-c1cc(F)cc(C(F)(F)F)c1 [Example 49]	>10 µM	172 % of pre
C[C@@H]1CCCN1Cc1sc(NC(=O)c2cnc(N3CCN(CCC(=O)O)CC3)cn2)nc1-c1ccc(Cl)c(C(F)(F)F)c1 [Example 15]	>10 µM	142 % of pre
COc1ccc(-c2nc(NC(=O)c3cnc(N4CCN(CCC(=O)O)[C@@H](C)C4)cn3)sc2CN2CCC[C@H]2C)cc1C(F)(F)F [Example 10]	>10 µM	145 % of pre
C[C@@H]1CCCN1Cc1sc(NC(=O)c2cnc(N3CCN(CCC(=O)[O-])CC3)cn2)nc1-c1cc(C#N)cc(C(F)(F)F)c1.[Na+] [Example 34]	>10 µM	134 % of pre
C[C@@H]1CCCN1Cc1sc(NC(=O)c2cnc(N3CCN(CCC(=O)O)C[C@H]3C)cn2)nc1-c1cc(C(F)(F)F)cs1 [Example 3, 3-[(3R)-3-methyl-4-{5-[(5-{[(2R)-2-methylpyrrolidin-1-yl]methyl}-4-[4-(trifluoromethyl)thiophen-2-yl]-1,3-thiazol-2-yl)carbamoyl]pyrazin-2-yl}piperazin-1-yl]propanoic acid dihydrochloride]	0.78 µM	251 % of pre
CC(C(=O)O)N1CCN(c2cnc(C(=O)Nc3nc(-c4cc(F)cc(C(F)(F)F)c4)c(CN4CCC[C@H]4C)s3)cn2)CC1 (stereo partly shown) [Example 64]	>10 µM	135 % of pre
CCN(CC)Cc1sc(NC(=O)c2cnc(N3CCN(CCC(=O)O)CC3)cn2)nc1-c1cc(F)cc(C(F)(F)F)c1 [Example 109]	>10 µM	180 % of pre
CC[C@@H]1CCCN1Cc1sc(NC(=O)c2cnc(N3CCN(CCC(=O)O)[C@H](C)C3)cn2)nc1-c1cc(Cl)cs1 [Example 143]	7.8 µM	172 % of pre
COc1c(Cl)cc(-c2nc(NC(=O)c3cnc(N4CCN(CCC(=O)O)CC4)cn3)sc2CN2CCC[C@H]2C)cc1Cl [Example 43]	>10 µM	125 % of pre
C[C@@H]1CCCN1Cc1sc(NC(=O)c2cnc(N3CCN(CCC(=O)O)CC3)cn2)nc1-c1cc(Cl)cc(C(F)(F)F)c1 [Example 11]	>10 µM	132 % of pre
C[C@@H]1CCCN1Cc1sc(NC(=O)c2cnc(N3CCN(CCC(=O)O)CC3)cn2)nc1-c1cc(Cl)cs1 [Example 82]	>10 µM	138 % of pre
C[C@@H]1CCCN1Cc1sc(NC(=O)c2cnc(N3CCN(CCCC(=O)O)CC3)cn2)nc1-c1cc(F)cc(C(F)(F)F)c1 [Example 21]	>10 µM	155 % of pre
C[C@@H]1CCCN1Cc1sc(NC(=O)c2cnc(N3CCN(CC(=O)O)CC3)cn2)nc1-c1cc(Cl)cc(C(F)(F)F)c1 [Example 13]	>10 µM	132 % of pre
COc1cc(-c2nc(NC(=O)c3cnc(N4CCN(CCC(=O)O)CC4)cn3)sc2CN2CCC[C@H]2C)cc(C(F)(F)F)c1 [Example 52]	>10 µM	129 % of pre
CCOc1ccc(-c2nc(NC(=O)c3cnc(N4CCN(CCC(=O)O)C[C@H]4C)cn3)sc2CN2CCC[C@H]2CC)cc1C(F)(F)F [Example 133]	>10 µM	150 % of pre
C[C@@H]1CCCN1Cc1sc(NC(=O)c2cnc(N3CCN(CC(=O)O)CC3)cn2)nc1-c1ccc(F)c(C(F)(F)F)c1 [Example 61]	1.3 µM	129 % of pre

From patent publication US9951060B2, “2-acylaminothiazole derivative or salt thereof” (ASTELLAS PHARMA INC., priority 2014, dated 2018)
